Values after ≈ are worked out from the molar mass of the structure shown.
Legend:
Escherichia coli = experiment: microbe, parasite or virus in culture; assay type: functional, ATCC 25922; conditions: for MIC: Escherichia coli, ATCC 25922, 24 h
Description: Antibacterial activity against Escherichia coli ATCC 25922 after 24 hrs by disc diffusion method

Candida albicans = experiment: Antifungal activity against Candida albicans NCIM no. 300 after 3 to 4 days by serial plate dilution method; assay type: functional; conditions: for MIC: Candida albicans
Streptococcus pyogenes = experiment: Antibacterial activity against Streptococcus pyogenes after 24 hrs by disc diffusion method; assay type: functional; conditions: for MIC: Streptococcus pyogenes, 24 h
Staphylococcus aureus = experiment: microbe, parasite or virus in culture; assay type: functional, ATCC 25923; conditions: for MIC: Staphylococcus aureus, ATCC 25923, 24 h
Description: Antibacterial activity against Staphylococcus aureus ATCC 25923 after 24 hrs by disc diffusion method

Trichophyton benhamiae = experiment: Antifungal activity against Trichophyton mentagrophytes after 3 to 4 days by serial plate dilution method; assay type: functional, Arthroderma benhamiae; conditions: for MIC: Trichophyton benhamiae
Aspergillus flavus = experiment: Antifungal activity against Aspergillus flavus NCIM no. 524 after 3 to 4 days by serial plate dilution method; assay type: functional; conditions: for MIC: Aspergillus flavus
Klebsiella pneumoniae = experiment: Antibacterial activity against Klebsiella pneumoniae after 24 hrs by disc diffusion method; assay type: functional; conditions: for MIC: Klebsiella pneumoniae, 24 h
Talaromyces marneffei = experiment: Antifungal activity against Penicillium marneffei after 3 to 4 days by serial plate dilution method; assay type: functional; conditions: for MIC: Talaromyces marneffei
Aspergillus fumigatus = experiment: Antifungal activity against Aspergillus fumigatus NCIM no. 902 after 3 to 4 days by serial plate dilution method; assay type: functional; conditions: for MIC: Aspergillus fumigatus
Pseudomonas aeruginosa = experiment: microbe, parasite or virus in culture; assay type: functional, ATCC 27853; conditions: for MIC: Pseudomonas aeruginosa, ATCC 27853, 24 h
Description: Antibacterial activity against Pseudomonas aeruginosa ATCC 27853 after 24 hrs by disc diffusion method

## Cc1ccc(OCC(=O)N2N=C(c3ccc(Cl)cc3Cl)CC2(O)c2cc(F)c(Cl)cc2Cl)cc1 (stereo not given)
Escherichia coli
  inhibition zone (IZ): 15 mm
  MIC: 12.5 µg/mL (≈ 23.1 µM)
Candida albicans
  inhibition zone (IZ): 19 mm
  MIC: 6.25 µg/mL (≈ 11.5 µM)
Streptococcus pyogenes
  inhibition zone (IZ): 18 mm
  MIC: 12.5 µg/mL (≈ 23.1 µM)
Staphylococcus aureus
  inhibition zone (IZ): 19 mm
  MIC: 6.25 µg/mL (≈ 11.5 µM)
Trichophyton benhamiae
  inhibition zone (IZ): 18 mm
  MIC: 6.25 µg/mL (≈ 11.5 µM)
Aspergillus flavus
  inhibition zone (IZ): 16 mm
  MIC: 12.5 µg/mL (≈ 23.1 µM)
Klebsiella pneumoniae
  inhibition zone (IZ): 18 mm
  MIC: 6.25 µg/mL (≈ 11.5 µM)
Talaromyces marneffei
  inhibition zone (IZ): 18 mm
  MIC: 6.25 µg/mL (≈ 11.5 µM)
Aspergillus fumigatus
  inhibition zone (IZ): 20 mm
  MIC: 6.25 µg/mL (≈ 11.5 µM)
Pseudomonas aeruginosa
  inhibition zone (IZ): 24 mm
  MIC: 6.25 µg/mL (≈ 11.5 µM)

## COc1ccc(C2=NN(C(=O)COc3ccc(Cl)cc3)C(O)(c3cc(F)c(Cl)cc3Cl)C2)cc1 (stereo not given)
Escherichia coli
  inhibition zone (IZ): 18 mm
  MIC: 12.5 µg/mL (≈ 23.9 µM)
Candida albicans
  inhibition zone (IZ): 19 mm
  MIC: 6.25 µg/mL (≈ 11.9 µM)
Streptococcus pyogenes
  inhibition zone (IZ): 18 mm
  MIC: 12.5 µg/mL (≈ 23.9 µM)
Staphylococcus aureus
  inhibition zone (IZ): 19 mm
  MIC: 6.25 µg/mL (≈ 11.9 µM)
Trichophyton benhamiae
  inhibition zone (IZ): 19 mm
  MIC: 6.25 µg/mL (≈ 11.9 µM)
Aspergillus flavus
  inhibition zone (IZ): 18 mm
  MIC: 12.5 µg/mL (≈ 23.9 µM)
Klebsiella pneumoniae
  inhibition zone (IZ): 19 mm
  MIC: 6.25 µg/mL (≈ 11.9 µM)
Talaromyces marneffei
  inhibition zone (IZ): 20 mm
  MIC: 6.25 µg/mL (≈ 11.9 µM)
Aspergillus fumigatus
  inhibition zone (IZ): 21 mm
  MIC: 6.25 µg/mL (≈ 11.9 µM)
Pseudomonas aeruginosa
  inhibition zone (IZ): 22 mm
  MIC: 6.25 µg/mL (≈ 11.9 µM)

## COc1ccc(C2=NN(C(=O)COc3ccc(Cl)cc3Cl)C(O)(c3cc(F)c(Cl)cc3Cl)C2)cc1OC (stereo not given)
Escherichia coli
  inhibition zone (IZ): 9 mm
  MIC: 25 µg/mL (≈ 42.5 µM)
Candida albicans
  MIC: > 100 µg/mL
Streptococcus pyogenes
  MIC: > 100 µg/mL
Staphylococcus aureus
  MIC: > 100 µg/mL
Trichophyton benhamiae
  MIC: > 100 µg/mL
Aspergillus flavus
  MIC: > 100 µg/mL
Klebsiella pneumoniae
  MIC: > 100 µg/mL
Talaromyces marneffei
  inhibition zone (IZ): 12 mm
  MIC: 25 µg/mL (≈ 42.5 µM)
Aspergillus fumigatus
  inhibition zone (IZ): 14 mm
  MIC: 12.5 µg/mL (≈ 21.2 µM)
Pseudomonas aeruginosa
  MIC: > 100 µg/mL

## COc1ccc(C2=NN(C(=O)COc3ccc(Cl)cc3Cl)C(O)(c3cc(F)c(Cl)cc3Cl)C2)cc1 (stereo not given)
Escherichia coli
  inhibition zone (IZ): 16 mm
  MIC: 12.5 µg/mL (≈ 22.4 µM)
Candida albicans
  inhibition zone (IZ): 12.5 mm
  MIC: 17 µg/mL (≈ 30.5 µM)
Streptococcus pyogenes
  inhibition zone (IZ): 19 mm
  MIC: 12.5 µg/mL (≈ 22.4 µM)
Staphylococcus aureus
  inhibition zone (IZ): 16 mm
  MIC: 6.25 µg/mL (≈ 11.2 µM)
Trichophyton benhamiae
  inhibition zone (IZ): 18 mm
  MIC: 6.25 µg/mL (≈ 11.2 µM)
Aspergillus flavus
  inhibition zone (IZ): 16 mm
  MIC: 12.5 µg/mL (≈ 22.4 µM)
Klebsiella pneumoniae
  inhibition zone (IZ): 16 mm
  MIC: 12.5 µg/mL (≈ 22.4 µM)
Talaromyces marneffei
  inhibition zone (IZ): 20 mm
  MIC: 6.25 µg/mL (≈ 11.2 µM)
Aspergillus fumigatus
  inhibition zone (IZ): 19 mm
  MIC: 6.25 µg/mL (≈ 11.2 µM)
Pseudomonas aeruginosa
  inhibition zone (IZ): 21 mm
  MIC: 6.25 µg/mL (≈ 11.2 µM)

## COc1ccc(C2=NN(C(=O)COc3ccc(Cl)cc3)C(O)(c3cc(F)c(Cl)cc3Cl)C2)cc1OC (stereo not given)
Escherichia coli
  inhibition zone (IZ): 8 mm
  MIC: 25 µg/mL (≈ 45.1 µM)
Candida albicans
  inhibition zone (IZ): 10 mm
  MIC: 25 µg/mL (≈ 45.1 µM)
Streptococcus pyogenes
  inhibition zone (IZ): 10 mm
  MIC: 25 µg/mL (≈ 45.1 µM)
Staphylococcus aureus
  MIC: > 100 µg/mL
Trichophyton benhamiae
  MIC: > 100 µg/mL
Aspergillus flavus
  inhibition zone (IZ): 9 mm
  MIC: 25 µg/mL (≈ 45.1 µM)
Klebsiella pneumoniae
  MIC: > 100 µg/mL
Talaromyces marneffei
  MIC: > 100 µg/mL
Aspergillus fumigatus
  MIC: > 100 µg/mL
Pseudomonas aeruginosa
  MIC: > 100 µg/mL

## O=C(COc1ccc(Cl)cc1)N1N=C(c2ccc(Cl)cc2)CC1(O)c1cc(F)c(Cl)cc1Cl (stereo not given)
Escherichia coli
  inhibition zone (IZ): 18 mm
  MIC: 12.5 µg/mL (≈ 23.7 µM)
Candida albicans
  inhibition zone (IZ): 20 mm
  MIC: 12.5 µg/mL (≈ 23.7 µM)
Streptococcus pyogenes
  inhibition zone (IZ): 20 mm
  MIC: 12.5 µg/mL (≈ 23.7 µM)
Staphylococcus aureus
  inhibition zone (IZ): 18 mm
  MIC: 6.25 µg/mL (≈ 11.8 µM)
Trichophyton benhamiae
  inhibition zone (IZ): 19 mm
  MIC: 6.25 µg/mL (≈ 11.8 µM)
Aspergillus flavus
  inhibition zone (IZ): 16 mm
  MIC: 12.5 µg/mL (≈ 23.7 µM)
Klebsiella pneumoniae
  inhibition zone (IZ): 19 mm
  MIC: 6.25 µg/mL (≈ 11.8 µM)
Talaromyces marneffei
  inhibition zone (IZ): 18 mm
  MIC: 6.25 µg/mL (≈ 11.8 µM)
Aspergillus fumigatus
  inhibition zone (IZ): 18 mm
  MIC: 6.25 µg/mL (≈ 11.8 µM)
Pseudomonas aeruginosa
  inhibition zone (IZ): 21 mm
  MIC: 6.25 µg/mL (≈ 11.8 µM)

## O=C(O)c1cn(C2CC2)c2cc(N3CCNCC3)c(F)cc2c1=O [CIPROFLOXACIN]
Escherichia coli
  inhibition zone (IZ): 18 mm
  MIC: 12.5 µg/mL (≈ 37.7 µM)
Streptococcus pyogenes
  inhibition zone (IZ): 20 mm
  MIC: 12.5 µg/mL (≈ 37.7 µM)
Staphylococcus aureus
  inhibition zone (IZ): 19 mm
Klebsiella pneumoniae
  inhibition zone (IZ): 20 mm
  MIC: 6.25 µg/mL (≈ 18.9 µM)
Pseudomonas aeruginosa
  inhibition zone (IZ): 25 mm

## O=C(COc1ccc(Cl)cc1)N1N=C(c2ccc(Cl)cc2Cl)CC1(O)c1cc(F)c(Cl)cc1Cl (stereo not given)
Escherichia coli
  MIC: > 100 µg/mL
Candida albicans
  MIC: > 100 µg/mL
Streptococcus pyogenes
  MIC: > 100 µg/mL
Staphylococcus aureus
  MIC: > 100 µg/mL
Aspergillus flavus
  MIC: > 100 µg/mL
Klebsiella pneumoniae
  MIC: > 100 µg/mL
Talaromyces marneffei
  inhibition zone (IZ): 10 mm
  MIC: 25 µg/mL (≈ 44.4 µM)
Aspergillus fumigatus
  MIC: > 100 µg/mL
Pseudomonas aeruginosa
  MIC: > 100 µg/mL

Source: ChEMBL document CHEMBL1144479, “Synthesis and antimicrobial studies on novel chloro-fluorine containing hydroxy pyrazolines” (2007)
